# Assay results as given in patent US20220062228A1, “USE OF CARNOSOL FOR INCREASING MUSCLE PROTEIN SYNTHESIS” (Centre National De La Recherche Scientifique, priority 2018, published 2022).
# Where a name gives a salt, the structure may show the parent alone.
# Legend:
# human myotubes = assay: culture cell model of human skeletal muscle satellite cells: area of myotubes (troponin T immunofluorescence, Image J); type: cell-based; conditions: for hypertrophic activity on myotubes, carnosol compared with carnosic acid: 1 μg/ml and 5 μg/ml, FIG. 9; for hypertrophic activity on myotubes, comparison with antioxidant compounds: FIG. 8; for hypertrophic activity on myotubes (area of myotubes) / concentration from which hypertrophic activity is exhibited: myotubes from young human subjects; for hypertrophic activity on myotubes (area of myotubes): 5 μg/ml, FIG. 3; for concentration from which hypertrophic activity is exhibited: FIG. 4
# Description: (§1) In order to assay the hypertrophic effect on muscle of compounds from vegetal extracts, the inventors have designed a culture cell model of human skeletal muscle satellite cells. The skeletal muscle satellite cells are able to proliferate and to differentiate ex vivo. When cultured in a growth factors rich medium, the skeletal muscle satellite cells proliferate in the form of myoblasts. At confluence, the myoblasts morphologically differentiate by fusing thereby producing long multinucleated cells (myotubes or myofibers) which express muscular protein. Myotubes are able to respond to hypertrophic and atrophic signals by modulating the balance between the protein synthesis (hypertrophy) or the protein degradation (atrophy) (El Haddad M. et al., Cell Mol Life Sci. 2017 May; 74(10):1923-1936).
# The recovered skeletal muscle satellite cells used in the culture cell model by the inventors were recovered from a muscular biopsy of young and elderly subjects.
# The satellite cells can be easily recovered from a muscle biopsy and cultured ex vivo in dishes where they proliferate as myoblasts and differentiate into myotubes. The biopsy is treated according to an experimental protocol described and validated by us for human skeletal muscle from quadriceps (Kitzmann et al., 2006; El Haddad et al 2017). The biopsy is cut into a fragment of 1 mm^3 and placed in a culture dish treated with type 1 collagen. The explants are trapped inside in a thin layer of Matrigel (BD Matrigel Matrix, BD Biosciences) in 35 mm-collagen coated Petri dishes with growth media (DMEM/F12, supplemented with 10% fetal bovine serum, 0.1% Ultroser G, 1 ng/ml basic FGF, and 10 microg/mL gentamicin). After 6 to 8 days, when cells migrate out of the explants, they are enzymatically harvested using dispase (BD Biosciences) and subcultured in growth medium. Harvested cells are purified by immunomagnetic cell sorting using magnetic activated cell sorter (MACS) microbeads (MiltenyiBiotec) coupled to an antibody against CD56. Usually in protocols of muscle culture cells, muscle differentiation is induced by growing confluent myoblasts in differentiation medium depleted of growth factors. At confluence, myoblasts start to differentiate and differentiation can be evidenced 1) morphologically (after 2 to 4 days), as the fusion of myoblasts generates long giant multinucleated cells (named myotubes) and 2) biochemically, as myotubes express proteins required for muscle contraction. Differentiation is assessed by immunofluorescence using the antibodies against Troponin T and Myogenin, two markers of muscle differentiation. The differentiation status is also confirmed by precisely measuring the expression of three differentiation markers (Myogenin, Sarcomeric Actin and Caveolin by RT-qPCR). Expression of RPLP0 is also quantified as internal control.
# Briefly, myoblasts are seeded at 10^5 cells/dish onto 35 mm collagen-coated dishes and cultured in growth medium (DMEM/F12, supplemented with 10% fetal bovine serum, 0.1% Ultroser G, 1 ng/ml basic FGF, and 10 microg/ml gentamicin). Myogenic differentiation of confluent cells was induced after 3 days by changing to DMEM containing 5% FBS (differentiation medium). Cells were kept in differentiation medium for 3 to 4 days.
# Then the cells are fixed and the expression of troponin T (a protein of the cytoskeleton which is exclusively expressed by myotubes) is analysed by immuno-fluorescence. Then the area of myotubes is measured using the Image J software. If the area increases the compound has a hypertrophic activity and if the area decreases the compound has an atrophic activity.
# The skeletal muscle satellite cells came from young people (aged under 30).
# NRF2 pathway = assay: induction of the NRF2 pathway (NRF2, HO-1) in skeletal muscle cells; type: cell-based; conditions: for NRF2 accumulation / full activation of NRF2 pathway by inducing HO-1: skeletal muscle, 6 μM
# Description: The regulation of Nrf2 signaling is believed to preserve redox homeostasis and protect the structure and function of skeletal muscle. Nrf2 is a transcription factor, inactivated by Keap-1 in the cytoplasm. Upon activation, Keap1 is degraded, and NRF2 mediates intracellular antioxidant response by binding to the antioxidant response element (ARE) in the promoter of its target genes and induces the expression of a set of antioxidant enzymes, called ‘phase 2 enzymes,’ including heme oxygenase-1 (HO-1). Recently it has been shown that Nrf2 deficiency caused accelerated aging and muscle loss during aging.
# Since carnosic acid and carnosol are antioxidants molecules and can activate the NRF2 pathway in several type of cells, it was studied whether carnosic acid and carnosol are capable of inducing NRF2 pathway in skeletal muscle.
# In order to know whether NRF2 pathway activation is sufficient to activate hypertrophy in skeletal muscle cells. An assay with DMF (dimethyl Fumarate) has been carried out. Given DMF is a NRF2 activator, if the NRF2 pathway activation is sufficient to activate hypertrophy in skeletal muscle cells then DMF should induce myotube hypertrophy.
# gastrocnemius muscle = assay: fibre areas (CSA) of gastrocnemius muscle sections, anti-dystrophin staining, Myovision; type: in vivo; conditions: adult C57 BL6 J mice, daily oral dose of 80 mg/Kg for 12 days; FIG. 6
# Experimental: (§2) Hypertrophic Activity of Carnosol In Vivo To investigate whether carnosol can alter skeletal muscle physiology, adult mice (13 weeks old, C57 BL6 J) were treated for 12 days with a daily oral dose of 80 mg/Kg. […] The determination of the fibre areas (CSA) was made using the Myovision software.
# mTOR pathway = assay: western blot of signaling pathways controlling muscle hypertrophy in myotubes; type: cell-based, human; conditions: FIG. 14
# Description: Two main pathways control the regeneration of contractile proteins: • PI3K/Akt/mTOR which is the major pathway of muscle hypertrophy and • pathway of the transcription factors of FOXO family which controls the expression of the genes involved in the proteasome degradation systems and the autophagy (respectively atrogenes and genes of the autophagy).
# At the molecular level, it has been established that the activation of the PI3K/Akt/mTOR pathway stimulates the protein synthesis through their anabolizing targets (mTOR, protein S6 kinase 1 (S6K) and the eIF4E-binding proteins (4E-BP) and blocks the ubiquitine E3 of the family of atrogenes MuRF1 and MAFbx mediated proteolysis pathway (FOXO) (Egerman and Glass, Signaling pathways controlling skeletal muscle mass. Crit Rev Biochem Mol Biol. 2014 January-February; 49(1):59-68).
# MuRF1 = assay: western blot of MuRF1 in myotubes / skeletal muscle cells; type: cell-based, human
# Description: The muscle protein degradation may be measured by assaying the level of expression of an ubiquitin ligases such as muscle RING-finger protein-1 (MuRF1).
# [1] = system: myotube cells from elderly subject; assay: culture cell model with skeletal muscle satellite cells recovered from elderly subjects: area of myotubes; type: cell-based, human; conditions: elderly subjects 1 and 2; carnosol 2 μg/ml; FIG. 5
# Description: as §1, with “74(10):1923-1936). […]” for “74(10):1923-1936).”
# The satellite cells can be easily recovered from a muscle biopsy and cultured ex vivo in dishes where they proliferate as myoblasts and differentiate into myotubes. […] Differentiation is assessed by immunofluorescence using the antibodies against Troponin T and Myogenin, two markers of muscle differentiation. […] Expression of RPLP0 is also quantified as internal control. […]
# Then the cells are fixed and the expression of troponin T (a protein of the cytoskeleton which is exclusively expressed by myotubes) is analysed by immuno-fluorescence. Then the area of myotubes is measured using the Image J software. […]
# [2] = system: protein synthesis in myotubes; assay: SUnSET puromycin incorporation western blot (protein synthesis) in the culture cell model; type: cell-based, human; conditions: myotubes stimulated with carnosol, puromycin 30 minutes before recovery; FIG. 13
# Experimental: The synthesis of muscle protein may be measured in vitro by the method disclosed in Schmidt et al., SUnSET, a nonradioactive method to monitor protein synthesis, Nat Methods. 2009 April; 6(4):275-7. Muscle cells were treated with puromycin, 30 minutes before recovering the protein from the cells. Then, a western blot is carried out with anti-puromycin antibodies in order to show the translation rate of the mRNA in the living cells.
# The muscular hypertrophic activity of carnosol may result from a global increase of the synthesis of proteins. To study this hypothesis, the culture cell model disclosed above was stimulated with carnosol. Then, 30 minutes before recovering the protein from the cells, the cells were treated with puromycin. The puromycin is incorporated in the neo-synthetized proteins. Then, a western blot was carried out with anti-puromycin antibodies in order to show the translation rate of the mRNA in the living cells (Schmidt et al., SUnSET, a nonradioactive method to monitor protein synthesis. Nat Methods. 2009; 6:275-277) (see FIG. 13).
# MURF1 protein = assay: western blot analysis on muscle extract for MURF1 protein; type: in vivo; conditions: adult C57 BL6 J mice, daily oral dose of 80 mg/Kg for 12 days; FIG. 7
# Experimental: as §2
# Then, a western blot analysis on muscle extract was performed to determine the impact of a carnosol treatment on MURF1 protein.
molecule,measurement,setting,value
"CC(C)(O)CC(=O)O [β-hydroxy-β-methylbutyrate, reference compound]",myotube hypertrophy,"human myotubes; human myotubes treated 48 hours, 25 μM and 100 μM, FIG. 11",only carnosol treatment induced myotube hypertrophy
vitamin D [reference compound],myotube hypertrophy,"human myotubes; human myotubes treated 48 hours, 10^−7M, FIG. 12",Only carnosol induced myotube hypertrophy
"CC(C)c1cc2c(c(O)c1O)[C@@]13CCCC(C)(C)[C@@H]1C[C@@H]2OC3=O [carnosol, Carnosol]",dose from which the NRF2 pathway is induced,NRF2 pathway; skeletal muscle cells,≥ 3 µM
same,NRF2 accumulation,NRF2 pathway,both induce NRF2 accumulation
same,full activation of NRF2 pathway by inducing HO-1,NRF2 pathway,only carnosol fully activates NRF2 pathway by inducing HO-1
same,"diameter of the fibers (fibre area, CSA) of the gastrocnemius",gastrocnemius muscle,significantly increases the diameter of the fibers
same,phosphorylation rate of 4EBP1 (p-4EBP1/4EPB1),mTOR pathway,increasing the phosphorylation rate
same,phosphorylation rate of P70 S6 kinase (p-S6K/S6K),mTOR pathway,increasing the phosphorylation rate
same,phosphorylation rate of PS6 (p-S6/S6),mTOR pathway,increasing the phosphorylation rate
same,MuRF1 expression (degradation of proteins),"MuRF1; myotubes, western blot, FIG. 14",inhibits strongly the MuRF1 expression
same,hypertrophic activity on myotube cells of elderly subjects,[1],has also a hypertrophic activity
same,synthesis of protein in muscle cells (puromycin incorporation),[2],stimulates the synthesis of protein in muscle cells
same,"hypertrophic activity on myotubes, carnosol compared with carnosic acid",human myotubes,the hypertrophic activity of carnosol is significantly higher than the one of carnosic acid
same,"hypertrophic activity on myotubes, comparison with antioxidant compounds",human myotubes; 2 μg/ml,only carnosol has a significant hypertrophic activity
same,myotube hypertrophy,"human myotubes; human myotubes treated 48 hours, 1 μg/ml, FIGS. 10-12",only carnosol treatment induced myotube hypertrophy
same,hypertrophic activity on myotubes (area of myotubes),human myotubes; listed as commercially available carnosol,same hypertrophic activity as the fraction C
same,hypertrophic activity on myotubes (area of myotubes),human myotubes; listed as fraction C,active compound was isolated in the fraction C
same,concentration from which hypertrophic activity is exhibited,human myotubes; conversion of 0.5 μg/ml,1 to 2 µM
same,concentration from which hypertrophic activity is exhibited,human myotubes; tested 0.25-5 μg/ml,≥ 0.5 µg/mL
same,MURF1 protein level in gastrocnemius,MURF1 protein,down-regulates MURF1 protein level
"CC(C)c1cc2c(c(O)c1O)[C@@]1(C(=O)O)CCCC(C)(C)[C@@H]1CC2 [carnosic acid, reference compound]",NRF2 accumulation,NRF2 pathway,both induce NRF2 accumulation
same,full activation of NRF2 pathway by inducing HO-1,NRF2 pathway,only carnosol fully activates NRF2 pathway by inducing HO-1
same,"hypertrophic activity on myotubes, carnosol compared with carnosic acid",human myotubes,the hypertrophic activity of carnosol is significantly higher than the one of carnosic acid
same,"hypertrophic activity on myotubes, comparison with antioxidant compounds",human myotubes; 2 μg/ml,only carnosol has a significant hypertrophic activity
"O=C1O[C@H]([C@@H](O)CO)C(O)=C1O [vitamin C, ascorbic acid, reference compound]","hypertrophic activity on myotubes, comparison with antioxidant compounds",human myotubes; 50 μg/ml,only carnosol has a significant hypertrophic activity
"CC(C)C[C@H](N)C(=O)O [leucine, reference compound]",myotube hypertrophy,"human myotubes; human myotubes treated 48 hours, 5 mM, FIG. 10",only carnosol treatment induced myotube hypertrophy
"C[C@H]1[C@H](C)CC[C@]2(C(=O)O)CC[C@]3(C)C(=CC[C@@H]4[C@@]5(C)CC[C@H](O)C(C)(C)[C@@H]5CC[C@]43C)[C@H]12 [ursolic acid, reference compound]","hypertrophic activity on myotubes, comparison with antioxidant compounds",human myotubes; 2 μg/ml,only carnosol has a significant hypertrophic activity
"COC(=O)/C=C/C(=O)OC [DMF, dimethyl Fumarate, reference compound]",dose from which the NRF2 pathway is induced,NRF2 pathway; skeletal muscle cells,> 20 µM
same,induction of the NRF2 pathway (NRF2 and HO-1),NRF2 pathway; skeletal muscle cells,induces the NRF2 pathway
same,repression of MURF1 protein,"MuRF1; skeletal muscle cells, DMF treatment versus carnosol treatment",does not induce repression of MURF1 protein
same,myotube hypertrophy,"human myotubes; 50 μM, FIG. 15",does not induce repression of MURF1 protein and myotube hypertrophy
"O=C(/C=C/c1ccc(O)c(O)c1)O[C@H](Cc1ccc(O)c(O)c1)C(=O)O [rosmarinic acid, reference compound]","hypertrophic activity on myotubes, comparison with antioxidant compounds",human myotubes; 2 μg/ml,only carnosol has a significant hypertrophic activity
